This note sets out measurements from PubChem BioAssay AID192 (DTP/NCI, 2004).

Structures are written as SMILES. Several values for one entry are separate records, joined by “and”; a condition that tells them apart may be missing. Identical values can stand only once. Inconclusive results and toxic doses are left out.

The test system of this assay is BDF1 mice, B16 melanoma ip, median survival T/C. As to the kind of experiment: NCI In Vivo Anticancer Drug Screen. Data for tumor model B16 Melanoma (intraperitoneal) in B6D2F1 (BDF1) mice. The note with it: endpoint: median survival time, schedule: Q01DX009 (ip), higher = longer survival. The essentials: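 Tumor-bearing mice received test compound or vehicle. Survival or tumor size was then measured in both groups. The treated-group figure was divided by the control-group figure.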

The mark [1] stands for this setting: dose: 12.5 mg/kg/injection, vehicle: saline.
Where [2] appears, read: dose: 25.0 mg/kg/injection, vehicle: saline.
Setting [3] is: dose: 200.0 mg/kg/injection, vehicle: Klucel (hydroxypropylcellulose) (HPC).
The mark [4] stands for this setting: dose: 100.0 mg/kg/injection, vehicle: Klucel (hydroxypropylcellulose) (HPC).

In the case of `CN1CCCCC1CCN1c2ccccc2Sc2ccc(Cl)cc21` (stereo unspecified), the T/C by setting is: (dose: 1.56 mg/kg/injection, vehicle: saline) 109 % of control; (dose: 3.12 mg/kg/injection, vehicle: saline) 102 % of control; (dose: 6.25 mg/kg/injection, vehicle: saline) 100 % of control; under setting [1], 103 % of control; under setting [2], 94 % of control.
As to `O=[N+]([O-])O.O=[N+]([O-])O.[NH-]C1CCCCC1[NH-].[Pt+2]` (stereo unspecified), the T/C runs as follows: (dose: 0.25 mg/kg/injection, vehicle: dextrose) 110 % of control; (dose: 0.5 mg/kg/injection, vehicle: dextrose) 120 % of control; (dose: 1.0 mg/kg/injection, vehicle: dextrose) 160 % of control; (dose: 2.0 mg/kg/injection, vehicle: dextrose) 183 % of control.
Turning to `Brc1cc(Br)cc(-c2nnc(-c3cccc4ccccc34)o2)c1`, under setting [3], the T/C was 94 % of control.
For the molecule `CN(C)CCCNc1c2ccccc2nc2cccc([N+](=O)[O-])c12`, the T/C reads like this: (dose: 2.0 micrograms/kg/injection, vehicle: saline) 112 % of control; (dose: 4.0 micrograms/kg/injection, vehicle: saline) 116 % of control; (dose: 8.0 micrograms/kg/injection, vehicle: saline) 107 % of control; (dose: 16.0 micrograms/kg/injection, vehicle: saline) 109 % of control; (dose: 32.0 micrograms/kg/injection, vehicle: saline) 121 % of control; (dose: 63.0 micrograms/kg/injection, vehicle: saline) 103 % of control. Also, the T/C (dose: 125.0 micrograms/kg/injection, vehicle: saline) is 90 % of control.
In the case of `C[As](C)Sc1ccnc(S[As](C)C)n1`, the T/C was 100 % of control (dose: 50.0 mg/kg/injection, vehicle: Klucel (hydroxypropylcellulose) (HPC)) and 119 % of control under setting [4].
Consider `OC(CCN1CCCCC1)(c1ccccc1)C1CC2C=CC1C2` (stereo unspecified), for which the T/C was 96 % of control (dose: 0.19 mg/kg/injection, vehicle: Klucel (hydroxypropylcellulose) (HPC)); 100 % of control (dose: 0.39 mg/kg/injection, vehicle: Klucel (hydroxypropylcellulose) (HPC)); 103 % of control (dose: 0.78 mg/kg/injection, vehicle: Klucel (hydroxypropylcellulose) (HPC)); 100 % of control (dose: 1.56 mg/kg/injection, vehicle: Klucel (hydroxypropylcellulose) (HPC)); 115 % of control (dose: 3.12 mg/kg/injection, vehicle: Klucel (hydroxypropylcellulose) (HPC)); 94 % of control (dose: 6.25 mg/kg/injection, vehicle: Klucel (hydroxypropylcellulose) (HPC)). For the same molecule, the T/C is 92 % of control and 96 % of control (dose: 12.5 mg/kg/injection, vehicle: Klucel (hydroxypropylcellulose) (HPC)); 89 % of control under setting [4].
On to `C1CN2CN3CCN(CN1C3)C2`, for which the T/C runs as follows: under setting [1], 99 % of control and 114 % of control; under setting [2], 103 % of control and 113 % of control; (dose: 50.0 mg/kg/injection, vehicle: saline) 123 % of control.
Turning to `COC1=C(O)C(C(O)CO)OC1=O` (stereo unspecified), the T/C (dose: 100.0 mg/kg/injection, vehicle: saline) was 99 % of control; the T/C (dose: 200.0 mg/kg/injection, vehicle: saline) was 110 % of control; the T/C (dose: 400.0 mg/kg/injection, vehicle: saline) was 108 % of control.
In the case of `O=C(Cc1ccc2cc3c(cc2c1)OCO3)NCCc1ccc2c(c1)OCO2`, the T/C is 105 % of control under setting [4]; 94 % of control under setting [3]; 91 % of control (dose: 400.0 mg/kg/injection, vehicle: Klucel (hydroxypropylcellulose) (HPC)).
